Literature values in patent US20100137787A1, “Delivery devices for modulating inflammation” (Searete LLC, a limited liability corporation of the State …, priority 2008, published 2010).
Values belong to the compound of their own block, whether it stands above or below them.

Key:
[1] = molecular target: Toll-like receptor 4 (Homo sapiens, UniProt O00206)
[2] = single agent, infused at 400 mg over one hour
[3] = system: aldehyde dehydrogenase

Toll-like receptor 4, sequence (O00206 24-839, species assumed): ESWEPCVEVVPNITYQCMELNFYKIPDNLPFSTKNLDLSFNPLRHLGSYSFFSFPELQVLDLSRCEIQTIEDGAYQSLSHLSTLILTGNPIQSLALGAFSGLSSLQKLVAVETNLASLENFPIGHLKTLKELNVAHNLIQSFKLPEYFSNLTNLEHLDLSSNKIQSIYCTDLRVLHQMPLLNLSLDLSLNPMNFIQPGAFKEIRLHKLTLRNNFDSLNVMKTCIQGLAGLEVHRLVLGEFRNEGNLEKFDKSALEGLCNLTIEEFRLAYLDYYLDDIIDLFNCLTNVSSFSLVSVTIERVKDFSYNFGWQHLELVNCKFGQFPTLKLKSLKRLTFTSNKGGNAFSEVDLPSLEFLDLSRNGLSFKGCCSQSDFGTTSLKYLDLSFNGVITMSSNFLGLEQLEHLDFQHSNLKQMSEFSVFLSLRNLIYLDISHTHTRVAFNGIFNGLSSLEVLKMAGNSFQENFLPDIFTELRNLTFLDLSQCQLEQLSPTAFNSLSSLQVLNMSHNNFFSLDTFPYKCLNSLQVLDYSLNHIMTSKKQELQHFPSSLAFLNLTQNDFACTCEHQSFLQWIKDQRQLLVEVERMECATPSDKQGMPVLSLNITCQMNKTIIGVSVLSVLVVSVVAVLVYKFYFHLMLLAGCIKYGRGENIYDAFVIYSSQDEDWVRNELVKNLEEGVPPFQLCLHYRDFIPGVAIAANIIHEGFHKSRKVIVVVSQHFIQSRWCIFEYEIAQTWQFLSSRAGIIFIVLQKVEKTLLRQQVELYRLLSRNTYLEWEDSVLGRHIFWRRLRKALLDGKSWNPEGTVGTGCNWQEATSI

inhibitor of Toll-like receptor 4 [1]: inhibitor of Toll-like receptor 4
Compound: Cl.Cl.Nc1ccccc1Oc1ccc2c(N)nsc2c1 [Example M62812, 3-amino-6-(2-aminophenoxy)-1,2-benzisothiazole dihydrochloride]

Compound: CCN(CC)CCCC(C)Nc1ccnc2cc(Cl)ccc12.O=P(O)(O)O.O=P(O)(O)O (stereo not shown) [chloroquine phosphate, 7-chloro-4-[[4-(diethylamino)-1-methylbutyl]amino]quinoline phosphate (1:2)]
tolerability of infusion [2]: without complication

inhibition of aldehyde dehydrogenase [3]: inhibits
Compound: CCN(CC)C(=S)SSC(=S)N(CC)CC [disulfiram, 1-(diethylthiocarbamoyldisulfanyl)-N,N-diethyl-methanethioamide]
toxicity accompanying aldehyde dehydrogenase inhibition [3]: without toxicity
